# From ChEMBL document CHEMBL3832053, “DailyMed|setid=94de983f-549b-42ed-9f40-b022aa3bef0f | TRANDOLAPRIL- trandolapril tablet|Carilion Materials Management”
# Where “and” joins values, the source holds several entries; their conditions need not be identical. Identical values can stand only once.
# Tested on: Homo sapiens
# Test: Pharmacokinetic parameters for Trandolapril or its active metabolite of Trandolaprilat, after oral or intravenous (IV) administration of Trandolapril.
# Conditions: in vivo; for Total CL: iv
Total CL [L/h],Excretion (po),F (po) [%],Protein binding (po),t1/2 ss (po) [h],CL renal (po) [L/h],t1/2 (po) [h],Compound
7,66% and 33%,70,94% and 65%,22.5,–,–,C[C@H](N[C@@H](CCc1ccccc1)C(=O)O)C(=O)N1[C@H](C(=O)O)C[C@H]2CCCC[C@@H]21 [TRANDOLAPRILAT]
52,–,–,–,–,1 to 4,6,CCOC(=O)[C@H](CCc1ccccc1)N[C@@H](C)C(=O)N1[C@H](C(=O)O)C[C@H]2CCCC[C@@H]21 [TRANDOLAPRIL]
